Measurements as given in patent US5686458A, “Quinazoline deriviates for treating peptic ulcer” (Yuhan Corporation, priority 1992, dated 1997).
Where “and” joins values, the source holds several entries; their conditions need not be identical. Equal entries are not always repeated. Where two headings read alike, the source gives them in different places.

How the values were obtained:
[1] = tested on: gastric secretion stimulated by pentagastrin; test: Inhibition of gastric secretion stimulated by pentagastrin (Experiment 3-2); assay type: in vivo, Sprague-Dawley male rats; details: intravenous; for ED50: Rattus norvegicus
Protocol: The same procedures as in Experiment 3-1 were carried out, except that as a secretion stimulating substance, pentagastrin was infused into the left jugular vein of the rats at a dosage of 24 μg/2 ml/200 g/hr.

[2] = target: T1, Proton Pump (H^+ /K^+ ATPase) (Oryctolagus cuniculus, UniProt P27112); test: Inhibition of Proton Pump (H+/K+ ATPase) Activity, in vitro enzyme reaction (Experiment 1); assay type: biochemical, New Zealand white rabbit
T1 construct: The microsomes thus obtained were used as an enzyme source of the in vitro enzyme reaction study of proton pump; from tissue; host or cells: rabbit stomach, mucosal scrapings, microsomes (180,000 g pellet)
Method in brief: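 Rabbit gastric mucosal microsomes (100 μg/ml) in 50 mM Tris-HCl pH 7.2 with 8 mM MgCl2, 100 mM KCl and 20 mM NH4Cl were preincubated with compound for 15 min at 37 °C. Reaction ran 30 min at 37 °C with 6.7 mM ATP; released phosphate was measured. K+-stimulated activity (Mg/K minus Mg alone) gave IC50 via Litchfield-Wilcoxon.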

[3] = tested on: gastric secretion stimulated by histamine; test: Anti-secretory effects when gastric secretion is stimulated by histamine (Experiment 3-1); assay type: in vivo, Sprague-Dawley male rats; details: intravenous; for ED50: Rattus norvegicus, read-out: ED50, gastric secretion inhibition
Protocol: In accordance with the method [see Ghosh and Shild, et al., British Journal of pharmacology 13:54-61 (1958)], anti-secretory effects of the test substances were studied in this Experiment. Sprague-Dawley male rats having a body weight of 200±20 g were divided into 3 groups, Group 1 to be administered with the compound of Example 34, Group 2 to be administered with SK&F96067[see Keeling, D. […] The rats of each Group, deprived of food for 24 hours before the experiment with free access to water, were anesthetized by intraperitoneally administering of 1.5 g/kg of 20% aqueous urethane solution and positioned on the test plate which was heated and maintained at 37° C. The anesthetized rats were cannulated at the right jugular vein for the administration of the test compounds and the left jugular vein for the administration of stimulating substances. After an abdominal incision, tubes were inserted into the esophagus and duodenum, each of which was connected with saline in a thermostat and a fraction collector. […] To the left jugular vein, histamine was administered as a gastric secretion stimulator. […] The gastric secretion inhibition (%) of the test compounds was calculated from the following equation: The gastric secretion inhibition (%) of the test compounds =(A-C)/(A-B)×100 . . . (IV) in which […]

T1 sequence (P27112 whole entry): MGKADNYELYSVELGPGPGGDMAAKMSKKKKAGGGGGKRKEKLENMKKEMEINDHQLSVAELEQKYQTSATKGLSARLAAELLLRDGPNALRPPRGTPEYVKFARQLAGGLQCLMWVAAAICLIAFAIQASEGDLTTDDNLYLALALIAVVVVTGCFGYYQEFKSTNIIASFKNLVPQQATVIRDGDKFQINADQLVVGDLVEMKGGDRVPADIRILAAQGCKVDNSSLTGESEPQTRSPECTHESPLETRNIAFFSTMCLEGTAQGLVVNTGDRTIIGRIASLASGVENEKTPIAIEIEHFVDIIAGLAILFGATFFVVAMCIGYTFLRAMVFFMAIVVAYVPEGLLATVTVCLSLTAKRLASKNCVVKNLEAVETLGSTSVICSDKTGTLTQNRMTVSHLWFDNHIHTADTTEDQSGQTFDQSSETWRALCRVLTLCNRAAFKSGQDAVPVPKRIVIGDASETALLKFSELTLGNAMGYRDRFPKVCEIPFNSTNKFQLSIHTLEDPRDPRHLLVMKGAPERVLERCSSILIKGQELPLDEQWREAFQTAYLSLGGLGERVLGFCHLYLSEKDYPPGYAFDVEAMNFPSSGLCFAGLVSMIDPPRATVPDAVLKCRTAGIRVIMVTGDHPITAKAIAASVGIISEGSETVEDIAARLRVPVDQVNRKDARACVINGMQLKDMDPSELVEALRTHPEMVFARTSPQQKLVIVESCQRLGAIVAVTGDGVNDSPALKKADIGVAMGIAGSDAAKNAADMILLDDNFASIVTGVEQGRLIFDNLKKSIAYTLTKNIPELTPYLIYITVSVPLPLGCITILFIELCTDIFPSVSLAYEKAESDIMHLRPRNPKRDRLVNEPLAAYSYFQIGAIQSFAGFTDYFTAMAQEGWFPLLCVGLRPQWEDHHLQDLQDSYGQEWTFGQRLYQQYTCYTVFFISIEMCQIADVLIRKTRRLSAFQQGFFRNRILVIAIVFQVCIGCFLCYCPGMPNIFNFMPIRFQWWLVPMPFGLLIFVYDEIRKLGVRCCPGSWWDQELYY
T1 sequence (P18597 whole entry partner): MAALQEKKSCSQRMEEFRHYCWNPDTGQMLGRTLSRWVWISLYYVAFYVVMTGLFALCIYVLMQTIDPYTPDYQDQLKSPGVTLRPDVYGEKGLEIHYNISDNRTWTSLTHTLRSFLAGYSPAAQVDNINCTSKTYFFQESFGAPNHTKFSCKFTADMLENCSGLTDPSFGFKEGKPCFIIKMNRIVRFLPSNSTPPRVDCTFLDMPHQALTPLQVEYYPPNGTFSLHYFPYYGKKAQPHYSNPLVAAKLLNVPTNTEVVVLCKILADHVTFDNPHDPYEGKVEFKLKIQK

Row | Effect ratio ([2]; IC50 of Omeprazole / IC50 of test compound) | IC50 ([2]; K+-stimulated H+/K+ ATPase activity, rabbit gastric microsomes, pH 7.2, 37° C., 15 min prereaction, 30 min reaction, read-out: IC50 of test compound, inhibition (50%) of the proton pump activity) [µM] | SMILES | The gastric secretion inhibition ([1]; 1.0 mg/kg) [%] | The gastric secretion inhibition ([1]; 3.0 mg/kg) [%] | The gastric secretion inhibition ([1]; 5.0 mg/kg) [%] | ED50 [1] [mg/kg] | The gastric secretion inhibition (%) ([3]; 0.5 mg/kg) | The gastric secretion inhibition (%) ([3]; 1.0 mg/kg) | The gastric secretion inhibition (%) ([3]; 3.0 mg/kg) | ED50 [3] [mg/kg] | The gastric secretion inhibition ([1]; 0.3 mg/kg) [%] | The gastric secretion inhibition ([1]; 0.5 mg/kg) [%] | IC50 ([2]; comparative compound, value printed on the line of each test compound, read-out: IC50 of Omeprazole, inhibition (50%) of the proton pump activity) | The gastric secretion inhibition (%) ([3]; 0.1 mg/kg) | The gastric secretion inhibition (%) ([3]; 0.3 mg/kg)
1 | 5.45 | 1.7 | COc1cccc2c(N3CCc4ccccc4C3C)nc(Nc3ccc(F)cc3C)nc12.Cl (stereo not shown) [Example 34, 8-Methoxy-2-(4-Fluoro-2-Methyl-Phenylamino)-4-(1-Methyl-1,2,3,4-Tetrahydroisoquinoline-2-Yl)Quinazoline Hydrochloride] | 41.2 | 77.0 | 110.2 | 1.31 | 44.4 | 52.0 | 76.5 | 0.9 |  |  |  |  | 
2 |  |  | COc1ccc2[nH]c([S+]([O-])Cc3ncc(C)c(OC)c3C)nc2c1 (stereo not shown) [Omeprazole, omeprazole, reference compound] | 114.3 |  |  | 0.47 |  | 102.3 |  | 0.29 | 5.0 | 63.1 | 9.5 µM and 9.3 µM | 8.0 | 49.4
